Laboratory results as given in patent US5726162A (priority 1996, dated 1998).

system: fungal mycelium; test: organism not typed; type: cell-based; conditions: read-out: % growth inhibition

Compound | inhibition at 200 ppm [%] | inhibition at 25 ppm [%] | inhibition at 50 ppm [%] | inhibition at 1 ppm [%] | inhibition at 100 ppm [%] | inhibition at 2.5 ppm [%] | inhibition at 0.5 ppm [%] | inhibition at 10 ppm [%] | inhibition at 5 ppm [%]
CC#CCN1N=C(C=Cc2ccc(Cl)cc2)CCC1=O [Compound 24] | 6.1 | – | – | – | – | – | – | – | –
O=C(O)C#CCN1N=C(c2ccc(Cl)cc2)CCC1=O [Compound 54, 6-(4-chlorophenyl)-2-(3'-carboxy-2'-propynyl)-4,5-dihydropyridazinone] | 71.4 | – | – | – | – | – | – | – | –
CC#CCN1N=C(c2ccc(Cl)c(C)c2)CCC1=O [Compound 63] | 100 | – | – | – | – | – | – | – | –
CCC#CCN1N=C(c2ccc(C#N)cc2)CCC1=O [Compound 64] | – | 100 | – | – | – | – | – | – | –
CCC#CCN1N=C(c2ccc([N+](=O)[O-])cc2)CCC1=O [Compound 65] | – | – | 84 | – | – | – | – | – | –
CCC#CCN1N=C(c2ccc(OCC)cc2)CCC1=O [Compound 66] | – | 100 | – | – | – | – | – | – | –
CCC#CCN1N=C(c2ccc(Cl)c(F)c2)CCC1=O [Compound 74, 6-(4-chloro-3-fluorophenyl)-2-(2'-pentynyl)-4,5-dihydropyridazinone] | – | – | – | 100 | – | – | – | – | –
O=C1CCC(c2ccc(Cl)cc2)=NN1CC=C(Br)CBr [Compound 75] | – | – | – | – | 100 | – | – | – | –
CCC#CCN1N=C(c2ccc(OC)cc2)CCC1=O [Compound 81] | – | – | – | – | – | 95.8 | – | – | –
CCC#CCN1N=C(c2ccc(F)cc2)CCC1=O [Compound 82] | – | – | – | – | – | 100 | – | – | –
CC#CCN1N=C(c2ccc(Cl)c(F)c2)CCC1=O [Compound 83] | – | – | – | – | – | – | 81.3 | – | –
CCC#CCN1N=C(c2ccc(Br)c(F)c2)CCC1=O [Compound 97] | – | – | – | 100 | – | – | – | – | –
CCC#CCN1N=C(c2cc(F)cc(F)c2)CCC1=O [Compound 98] | – | – | – | – | – | – | – | 40 | –
CCC#CCn1nc(-c2cc(F)cc(F)c2)ccc1=O [Compound 126] | – | – | – | – | – | – | – | 100 | –
CCC#CCN1N=C(c2ccc(Cl)cc2)COC1=O [Compound 162, 2-(4-chlorophenyl)-3-(2-pentyn-1-yl)-3H, 6H-1,3,4-oxadiazin-2-one] | – | – | – | – | – | – | – | 96.9 | –
CC#CCN1N=C(c2ccc(Cl)cc2)COC1=O [Compound 163] | – | – | – | – | – | – | – | 12.7 | –
CCC#CCN1N=C(c2ccccc2)COC1=O [Compound 164] | – | – | – | – | 14.2 | – | – | – | –
CCC#CCN1N=C(c2ccc(Cl)cc2)CSC1=O [Compound 165, 5-(4-chlorophenyl)-3-(2-pentyn-1-yl)-3H,6H-1,3,4-thiadiazin-2-one] | – | – | – | – | 100 | – | – | – | –
CCC#CCN1N=C2c3ccc(Cl)cc3CCC2CC1=O (centres unmarked) [Compound 200, 4,4a,5,6-tetrahydro-8-chloro[h]-cinnolin-2-(2'-pentynyl)-3-one] | – | – | – | – | – | – | – | 100 | –

Compound | inhibition at 200 ppm [%] | inhibition at 25 ppm [%] | inhibition at 50 ppm [%] | inhibition at 1 ppm [%] | inhibition at 100 ppm [%] | inhibition at 2.5 ppm [%] | inhibition at 0.5 ppm [%] | inhibition at 10 ppm [%] | inhibition at 5 ppm [%]
CN1N=C(c2ccc(Cl)cc2)CCC1=O [Compound 201, 6-(4-chlorophenyl)-2-methyl-4,5-dihydropyridazinone] | – | – | – | – | – | – | – | 10 | –
CCC#CCn1nc2c(cc1=O)CCc1cc(Cl)ccc1-2 [Compound 202, 5 6-dihydro-8-chlorobenzo[h]cinnolin-3-(2'-pentynyl)-one] | – | – | – | – | – | – | – | 100 | –
CCC#CCC1CC(c2ccc(Cl)cc2)=NN(C)C1=O (centres unmarked) [Compound 203, 6-(4-chlorophenyl)-4-(2'-pentynyl)-2-methyl-4,5-dihydropyridazinone] | – | – | – | – | – | – | – | 100 | –
Cc1ccc(Cn2nc(-c3ccc(Cl)cc3)ccc2=O)o1 [Compound 204, 6-(4-chlorophenyl)-2-(5-methyl-2-furanylmethylene)-pyridazinone] | – | – | – | – | – | – | – | 100 | –
CCC#CCN1N=C(C=Cc2ccc(Cl)cc2)CCC1=O [Compound 205, 6-(4-chlorostyryl)-2-(2'-pentynyl)-4,5-dihydropyridazinone] | – | – | – | – | – | – | – | 100 | –
CCC#CCN1N=C(CCc2ccc(Cl)cc2)CCC1=O [Compound 206, 6-(4-chlorophenethyl)-2-(2'-pentynyl)-4,5-dihydropyridazinone] | – | – | – | 14.3 | – | – | – | – | –
CCC#CCN1N=C(c2ccc3c(c2)OCO3)CCC1=O [Compound 207, 6-(3,4-methylenedioxyphenyl)-2-(2'-pentynyl)-4,5-dihydropyridazinone] | – | – | – | 100 | – | – | – | – | –
CCC#CC(C)N1N=C(c2ccc(Cl)cc2)CCC1=O (centres unmarked) [Compound 208, 6-(4-chlorophenyl)-2-(1-methyl-2-pentynyl)-4,5-dihydropyridazinone] | – | – | – | 28.6 | – | – | – | – | –
CCC#CCN1N=C(c2ccccc2F)CCC1=O [Compound 209, 6-(2-fluorophenyl)-2-(2'-pentynyl)-4,5-dihydropyridazinone] | – | – | 85.7 | – | – | – | – | – | –
CCC#CCN1N=C(c2ccccc2C)CCC1=O [Compound 210, 6-(2-methylphenyl)-2-(2'-pentynyl)-4,5-dihydropyridazinone] | – | – | 35 | – | – | – | – | – | –
CCC#CCN1N=C(c2ccccc2Cl)CCC1=O [Compound 211, 6-(2-chlorophenyl)-2-(2'-pentynyl)-4,5-dihydropyridazinone] | – | – | 30 | – | – | – | – | – | –
CCC#CCN1N=C(c2ccccc2OC)CCC1=O [Compound 212, 6-(2-methoxyphenyl)-2-(2'-pentynyl)-4,5-dihydropyridazinone] | – | – | 35 | – | – | – | – | – | –
CCC#CCN1N=C(c2cccc(C(F)(F)F)c2)CCC1=O [Compound 213, 6-(3-trifluoromethylphenyl)-2-(2'-pentynyl)-4,5-dihydropyridazinone] | – | – | 100 | – | – | – | – | – | –
CCC#CCN1N=C(c2cccc(F)c2)CCC1=O [Compound 214, 6-(3-fluorophenyl)-2-(2'-pentynyl)-4,5-dihydropyridazinone] | – | – | 100 | – | – | – | – | – | –
CCC#CCN1N=C(c2cccc(C)c2)CCC1=O [Compound 215, 6-(3-methylphenyl)-2-(2'-pentynyl)-4,5-dihydropyridazinone] | – | – | 100 | – | – | – | – | – | –
CCC#CCN1N=C(c2cccc(Cl)c2)CCC1=O [Compound 216, 6-(3-chlorophenyl)-2-(2'-pentynyl)-4,5-dihydropyridazinone] | – | – | 100 | – | – | – | – | – | –
CCC#CCN1N=C(c2cccc(C#N)c2)CCC1=O [Compound 217, 6-(3-cyanophenyl)-2-(2'-pentynyl)-4,5-dihydropyridazinone] | – | – | 100 | – | – | – | – | – | –
CCC#CCN1N=C(c2cccc([N+](=O)[O-])c2)CCC1=O [Compound 218, 6-(3-nitrophenyl)-2-(2'-pentynyl)-4,5-dihydropyridazinone] | – | – | 100 | – | – | – | – | – | –
CCC#CCN1N=C(c2cccc(OC)c2)CCC1=O [Compound 219, 6-(3-methoxyphenyl)-2-(2'-pentynyl)-4,5-dihydropyridazinone] | – | – | 100 | – | – | – | – | – | –

Compound | inhibition at 200 ppm [%] | inhibition at 25 ppm [%] | inhibition at 50 ppm [%] | inhibition at 1 ppm [%] | inhibition at 100 ppm [%] | inhibition at 2.5 ppm [%] | inhibition at 0.5 ppm [%] | inhibition at 10 ppm [%] | inhibition at 5 ppm [%]
CCC#CCN1N=C(c2ccc(C)c(OC)c2)CCC1=O [Compound 220, 6-(3-methoxy-4-methylphenyl)-2-(2'-pentynyl)-4,5-dihydropyridazinone] | – | – | 100 | – | – | – | – | – | –
CCC#CCN1N=C(c2ccc(F)c(F)c2)CCC1=O [Compound 224, 6-(3,4-difluorophenyl)-2-(2'-pentynyl)-4,5-dihydropyridazinone] | – | – | 100 | – | – | – | – | – | –
CCC#CCN1N=C(c2ccc(C)c(F)c2)CCC1=O [Compound 225, 6-(3-fluoro-4-methylphenyl)-2-(2'-pentynyl)-4,5-dihydropyridazinone] | – | – | 100 | – | – | – | – | – | –
CCC#CCN1N=C(c2ccc(OC)c(C)c2)CCC1=O [Compound 226] | – | – | 100 | – | – | – | – | – | –
CCC#CCN1N=C(c2ccc3c(c2)CCc2ccccc2-3)CCC1=O [Compound 227, 6-(9,10-dihydro-2-phenanthrene)-2-(2'-pentynyl)-4,5-dihydropyridazinone] | – | – | – | – | – | – | – | 30 | –
CCC#CCn1nc(-c2ccccc2)c(-c2ccccc2)c(C#N)c1=O [Compound 228, 5,6-diphenyl-4-cyano-2-(2'-pentynyl)-pyridazinone] | – | – | – | – | – | – | – | 50 | –
CCC#CCN1N=C(c2cnc3ccccc3n2)CCC1=O [Compound 230, 6-(2-quinoxaline)-2-(2'-pentynyl)-4,5-dihydropyridazinone] | – | – | – | – | – | – | – | 30 | –
Cc1noc(C)c1CN1N=C(c2ccc(Cl)cc2)CCC1=O [Compound 231, 6-(4-chlorophenyl)-2-(3,5-dimethyl-4-isoxolylmethyl)-4,5-dihydropyridazinone] | – | – | – | – | – | – | – | 36 | –
CCC#CCn1nc2c(cc1=O)-c1cccc3cccc-2c13 [Compound 232, 8-(2'-pentynyl)-acenaphtho[1,2c]pyridazin-9-one] | – | – | – | – | – | – | – | – | 45.5
NNC(=O)CN1N=C(c2ccc(Cl)cc2)CCC1=O [Compound 233, 6-(4-chlorophenyl)-2-(acetyl hydrazide)4,5-dihydropyridazinone] | – | – | – | – | 21 | – | – | – | –
CC(=O)CC(C)=NNC(=O)CN1N=C(c2ccc(Cl)cc2)CCC1=O [Compound 234, 6-(4-chlorophenyl)-2-[N-acetylhydrazide-(N'-2,4-pentanedione-hydrazone)]-4,5-dihydropyridazinone] | – | – | – | – | 42 | – | – | – | –
CCC#CCN1N=C(c2csc3ccccc23)CCC1=O [Compound 235, 6-(3-thianaphthene)-2-(2'-pentynyl)-4,5-dihydropyridazinone] | – | – | – | – | 100 | – | – | – | –
CCC#CCn1nc(-c2csc3ccccc23)ccc1=O [Compound 236, 6-(3-thianaphthene)-2-(2'-pentynyl)-pyridazinone] | – | – | – | – | 100 | – | – | – | –
Cc1cc(C)n(C(=O)CN2N=C(c3ccc(Cl)cc3)CCC2=O)n1 [Compound 237, 6-(4-chlorophenyl)-2-(3,5-dimethyl-1-pyrazoylmethylene)-4,5-dihydropyridazinone] | – | – | – | – | 58 | – | – | – | –
O=C1CCC(c2ccc(Cl)cc2)=NN1Cc1n[nH]c(=O)o1 [Compound 238] | – | – | – | – | 31.6 | – | – | – | –
CCC#CCn1nc(CN2N=C(c3ccc(Cl)cc3)CCC2=O)oc1=O [Compound 239] | – | – | – | – | 100 | – | – | – | –
O=C(CN1N=C(c2ccc(Cl)cc2)CCC1=O)NN=Cc1cc(Cl)cc(Cl)c1O [Compound 240, 6-(4-chlorophenyl)-2-[N-acetylhydrazide-(N'-3,5-dichloro-2-hydroxy-phenylhydrazone)]-4,5-dihydropyridazinone] | – | – | – | – | 14 | – | – | – | –
O=C1CCC(c2ccc(Cl)cc2)=NN1Cc1nn(CC#CI)c(=O)o1 [Compound 241] | – | – | – | – | 100 | – | – | – | –

system: Magnaporthe grisea (Pyricularia oryzae); test: whole plant or invertebrate; type: in vivo, Magnaporthe grisea (Pyricularia oryzae) on M201 rice plants; conditions: Pyricularia oryzae, 144 h, read-out: % Control RB

Compound | pest or weed control at 200 ppm [%]
CC#CCN1N=C(C=Cc2ccc(Cl)cc2)CCC1=O [Compound 24] | 0
O=C(O)C#CCN1N=C(c2ccc(Cl)cc2)CCC1=O [Compound 54, 6-(4-chlorophenyl)-2-(3'-carboxy-2'-propynyl)-4,5-dihydropyridazinone] | 0
CC#CCN1N=C(c2ccc(Cl)c(C)c2)CCC1=O [Compound 63] | 0
CCC#CCN1N=C(c2ccc(C#N)cc2)CCC1=O [Compound 64] | 0
CCC#CCN1N=C(c2ccc([N+](=O)[O-])cc2)CCC1=O [Compound 65] | 0
CCC#CCN1N=C(c2ccc(OCC)cc2)CCC1=O [Compound 66] | 0
CCC#CCN1N=C(c2ccc(Cl)c(F)c2)CCC1=O [Compound 74, 6-(4-chloro-3-fluorophenyl)-2-(2'-pentynyl)-4,5-dihydropyridazinone] | 75
O=C1CCC(c2ccc(Cl)cc2)=NN1CC=C(Br)CBr [Compound 75] | 0
CCC#CCN1N=C(c2ccc(OC)cc2)CCC1=O [Compound 81] | 95
CCC#CCN1N=C(c2ccc(F)cc2)CCC1=O [Compound 82] | 0
CC#CCN1N=C(c2ccc(Cl)c(F)c2)CCC1=O [Compound 83] | 90
CC#CCN1N=C(c2ccc3ccccc3c2)CCC1=O [Compound 135] | 0
